# Laboratory results from patent US11517587B2, “Drug therapy to inhibit chemotherapy-induced adverse effects and related pharmaceutical compositions, diagnostics, screening techniques and kits” (YALE UNIVERSITY, priority 2011, dated 2022).
# B1: calpastatin: a natural calpain antagonist, expressed in cells (protein, UniProt P20810 1-708, looked up)
# Calpastatin: MNPTETKAIPVSQQMEGPHLPNKKKHKKQAVKTEPEKKSQSTKLSVVHEKKSQEGKPKEHTEPKSLPKQASDTGSNDAHNKKAVSRSAEQQPSEKSTEPKTKPQDMISAGGESVAGITAISGKPGDKKKEKKSLTPAVPVESKPDKPSGKSGMDAALDDLIDTLGGPEETEEENTTYTGPEVSDPMSSTYIEELGKREVTIPPKYRELLAKKEGITGPPADSSKPIGPDDAIDALSSDFTCGSPTAAGKKTEKEESTEVLKAQSAGTVRSAAPPQEKKRKVEKDTMSDQALEALSASLGTRQAEPELDLRSIKEVDEAKAKEEKLEKCGEDDETIPSEYRLKPATDKDGKPLLPEPEEKPKPRSESELIDELSEDFDRSECKEKPSKPTEKTEESKAAAPAPVSEAVCRTSMCSIQSAPPEPATLKGTVPDDAVEALADSLGKKEADPEDGKPVMDKVKEKAKEEDREKLGEKEETIPPDYRLEEVKDKDGKPLLPKESKEQLPPMSEDFLLDALSEDFSGPQNASSLKFEDAKLAAAISEVVSQTPASTTQAGAPPRDTSQSDKDLDDALDKLSDSLGQRQPDPDENKPMEDKVKEKAKAEHRDKLGERDDTIPPEYRHLLDDNGQDKPVKPPTKKSEDSKKPADDQDPIDALSGDLDSCPSTTETSQNTAKDKCKKAASSSKAPKNGGKAKDSAKTTEETSKPKDD
# Tests used:
# [1] = test system: lung cancer cell line (H1975); assay: Xenograft tumor volume in nude mice; assay type: in vivo; conditions: LiCl in the presence of Taxol treatment, short time after initiation of co-therapy
# Protocol: FIG. 4B: tumor volume effect.
# One or more murine models as described in Richmond, et al., Mouse xenograft models vs GEM models for human cancer therapeutics, Dis Model Mech. 2008 September-October; 1(2-3): 78-82, are prepared. As explained by Richmond, et al., “[t]hese models are used to investigate the factors involved in malignant transformation, invasion and metastasis, as well as to examine response to therapy. One of the most widely used models is the human tumor xenograft. […] For example, the xenograft will be readily accepted by athymic nude mice, severely compromised immunodeficient (SCID) mice, or other immunocompromised mice (Morton and Houghton, 2007). Depending upon the number of cells injected, or the size of the tumor transplanted, the tumor will develop over 1-8 weeks (or in some instances 1-4 months, or longer), and the response to appropriate therapeutic regimes can be studied in vivo.”
# Pursuant to the above protocol, a lung cancer cell line (H1975) was injected into nude mice; after two weeks tumors were large enough to measure. Exemplary dosages for use in the above murine models include 25 mg/kg taxol injected 1 time per week (2×), lithium (12.8 mg/kg) injected 1 hour prior to paclitaxel injection. Protection of NCS-1 levels and intracellular Ca^2+ signals in cells is evaluated using techniques as described in Examples 1-3.
# SHSY-5Y cells = assay: Intracellular Ca2+ signal in stimulated SHSY-5Y cells; assay type: cell-based
# Protocol: FIG. 2A: Protection of the intracellular calcium signal by 1 uM AV411. […] After 200 seconds thapsigargin (TG, an inhibitor of the intracellular Ca^2+ pump) was added to indicate that the intracellular stores were filled and the cells were viable (second arrow). […] Each line represents the average of at least 45 cells (at least 15 cells measured in three separate experiments).
# FIG. 2B: Protection of the intracellular calcium signal by 500 uM LiCl. Representative Ca^2+ responses of SHSY-5Y cells stimulated with 200 nM carbachol (at first arrow) to induce a transient release of Ca^2+ from intracellular stores. After 200 seconds thapsigargin (TG, an inhibitor of the intracellular Ca^2+ pump) was added to indicate that the intracellular stores were filled and the cells were viable (second arrow). […] Addition of 500 uM LiCl alone (pink trace)induced a small decrease in the Ca^2+ transient. […] Each line represents the average of at least 45 cells (at least 15 cells measured in three separate experiments.
# FIG. 3B: Protection of the intracellular calcium signal by 5.0 mM LiCl. Representative Ca^2+ responses of SHSY-5Y cells treated with 800 ng/mL Taxol for 6 hours in the presence and absence of 5.0 mM. The experiment is the same as described for FIG. 2 except that 5 mM LiCl was used.
# […] After 200 seconds thapsigargin (TG, an inhibitor of the intracellular Ca^2+ pump) was added to indicate that the intracellular stores were filled and the cells were viable (second arrow). […] Each line represents the average of at least 45 cells (at least 15 cells measured in three separate experiments).
# Intracellular Ca^2+ signals monitored in intact cells were also found to be reduced by treatment with Taxol for 6 hours (FIGS. 2B and 3B; compare control treatment (black trace) with Taxol treatment (blue trace) in both figures).
# NCS-1 [2] = assay: NCS-1 levels by Western blot in Taxol-treated SHSY-5Y neuroblastoma cells; assay type: cell-based
# Excerpt: (§1) Data shown are the average of three experiments.
# as §1
# More specifically, AV411 (ibudilast) is a drug used in several Asian countries for treatment of bronchial asthma, cerebrovascular disorders, post-stroke dizziness, and ocular allergies. In accordance with the Materials and Methods section of PNAS, Jun.
# as §1
# [3] = molecular target: NCS-1 / inositol 1,4,5 trisphosphate receptor (InsP3R) (Homo sapiens, UniProt P62166); assay: NCS-1 binding to the InsP3R
# NCS-1 / inositol 1,4,5 trisphosphate receptor (InsP3R), sequence (P62166 2-190 limits assumed, species assumed): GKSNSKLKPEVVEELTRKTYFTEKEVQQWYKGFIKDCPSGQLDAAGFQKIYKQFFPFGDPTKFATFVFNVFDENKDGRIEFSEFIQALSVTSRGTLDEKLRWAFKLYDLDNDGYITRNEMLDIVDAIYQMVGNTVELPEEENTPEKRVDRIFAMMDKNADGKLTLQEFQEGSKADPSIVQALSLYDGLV
# Excerpt: Based upon our observations regarding the activity of lithium carbonate, valproic acid, and chlorpromazine, we believe that there are additional drugs in these classes that will have the desired effect of preventing chemotherapy-induced polyneuropathy such as, but not limited to, […].
# mice [4] = assay: Echocardiograms of mice injected with taxol; assay type: in vivo
# Excerpt: FIG. 5B: The bottom three panels of the figure attached, is from echocardiograms done on mice injected with taxol. These are the same mice for which the xenograph study was done (shown at the top of the figure). […] These are both measurements of contractility. […] Heart rate was not altered.
# Taxol causes cardiac arrhythmias. […] The recent data shown in the bottom three panels of the FIG. 5B, is information compiled from echocardiograms done on mice injected with taxol. These are the same mice upon which the xenograph study was done (shown at the top of the figure). […] These are both measurements of contractility, which was reversed by lithium pre-treatment. […] Heart rate was not altered. The cardiologist who performed the experiment at the request of the inventor(s) was quite impressed and is considering studies in human patients. There are studies in the literature showing that chemotherapy induced changes acutely in contractility can develop into long term heart rhythm problems.
# NCS-1 [5] = molecular target: NCS-1 (Homo sapiens, UniProt P62166); assay: Tryptophan fluorescence binding to NCS-1
# NCS-1 (Homo sapiens, UniProt P62166), sequence (P62166 whole entry, species assumed): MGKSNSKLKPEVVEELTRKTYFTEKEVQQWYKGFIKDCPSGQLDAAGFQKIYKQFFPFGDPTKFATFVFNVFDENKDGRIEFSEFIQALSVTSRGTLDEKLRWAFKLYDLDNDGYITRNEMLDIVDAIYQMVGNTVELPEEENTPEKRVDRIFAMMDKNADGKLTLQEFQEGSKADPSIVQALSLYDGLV
# calcium release = assay: Calcium release after low dose paclitaxel; assay type: in vivo, mice; conditions: low doses of paclitaxel
# Excerpt: FIG. 11: Low dose paclitaxel decreases calcium release Lithium treatment prevents loss of calcium release.
# calpain = assay: Calpain activity after low dose paclitaxel; assay type: in vivo, mice
# Excerpt: FIG. 3: Low dose paclitaxel increases calpain activity. Lithium treatment prevents activation of calpain.
# microtubule assembly = assay: Microtubule assembly; assay type: biochemical
# Protocol: FIG. 5: Paclitaxel speeds up microtubule assembly.
# The relative effects of paclitaxel-LiCl and paclitaxel-AV411 co-administration on microtubule assembly were also determined.
# mice [6] = assay: Paclitaxel-induced myelin damage in mice; assay type: in vivo; conditions: paclitaxel-treated mice without Li-cotherapy
# NCS-1 [7] = assay: NCS-1 levels in peripheral nerve and brain after low dose paclitaxel; assay type: in vivo, mice
# Excerpt: FIG. 12: Low dose paclitaxel decreases NCS-1 levels in peripheral nerve, but not brain NCS-1 expression is maintained with lithium.
# [8] = test system: calcium signaling in cells; assay: Protection of calcium signaling by combination treatment / calpastatin expression; assay type: cell-based; conditions: combination treatment with Li and calpastatin (expression of calpastatin in cells)
# Excerpt: FIG. 7: Combination treatment protects calcium signaling.
# FIG. 8: Expression of calpastatin, a natural calpain antagonist, protects calcium signaling in cells.
molecule,measurement,setting,value
"[Cl-].[Li+] [LiCl, lithium chloride]",Tumor volume,[1],statistically significant decrease in tumor volume
same,Intracellular Ca2+ signals,SHSY-5Y cells; 500 uM or 5.0 mM LiCl in the presence of Taxol,signals similar to that of non-treated cells
same,Intracellular Ca2+ signals,SHSY-5Y cells; LiCl alone,"decreased the intracellular signals, but not to the extent seen with Taxol treatment"
same,NCS-1 levels (Western blot),"NCS-1 [2]; 500 uM and 5.0 mM LiCl in the presence of Taxol, 6 hours, SHSY-5Y",protected from the Taxol-induced degradation of NCS-1
same,NCS-1 levels (Western blot),"NCS-1 [2]; LiCl alone (500 uM, 5.0 mM)",did not reduce NCS-1 levels
CN(C)CCCN1c2ccccc2Sc2ccc(Cl)cc21 [chlorpromazine],NCS-1 binding to InsP3R,[3],"prevent neuronal calcium sensor 1 (NCS-1) from binding to the inositol 1,4,5 trisphosphate receptor (InsP3R)"
O=C([O-])[O-].[Li+].[Li+] [lithium carbonate],NCS-1 binding to InsP3R,[3],"prevent neuronal calcium sensor 1 (NCS-1) from binding to the inositol 1,4,5 trisphosphate receptor (InsP3R)"
CC(=O)O[C@H]1C(=O)[C@@]2(C)[C@H]([C@H](OC(=O)c3ccccc3)[C@]3(O)C[C@H](OC(=O)[C@H](O)[C@@H](NC(=O)c4ccccc4)c4ccccc4)C(C)=C1C3(C)C)[C@]1(OC(C)=O)CO[C@@H]1C[C@@H]2O [paclitaxel],End diastolic diameter and fractional shortening (contractility),mice [4]; 1 hour after taxol injection,end diastolic diameter and fractional shortening were altered
same,Heart rate,mice [4]; after taxol injection,not altered
same,Binding to NCS-1,NCS-1 [5],binds to NCS-1
same,Calcium release,calcium release,decreased calcium release
same,Calpain activity,calpain,increased calpain activity
same,Microtubule assembly,microtubule assembly,accelerates microtubule assembly
same,Ca2+ response,"SHSY-5Y cells; Taxol 800 ng/mL for 6 hours, stimulated with 1 uM ATP",response lower in amplitude than non-treated cells
same,Intracellular Ca2+ signals,"SHSY-5Y cells; Taxol for 6 hours, 200 nM carbachol",reduced
same,NCS-1 levels (Western blot),"NCS-1 [2]; paclitaxel (Taxol) alone, 800 ng/mL, 6 hours",decreased NCS-1 levels
same,NCS-1 levels (Western blot),"NCS-1 [2]; paclitaxel (Taxol) alone, 800 ng/mL, 6 hours, listed as Taxol",NCS-1 degradation
same,Myelin damage,mice [6],evident myelin damage enlarged structures
same,NCS-1 levels in peripheral nerve and brain,NCS-1 [7],"decreased NCS-1 levels in peripheral nerve, but not in the brain"
CCCC(CCC)C(=O)O [valproic acid],NCS-1 binding to InsP3R,[3],"prevent neuronal calcium sensor 1 (NCS-1) from binding to the inositol 1,4,5 trisphosphate receptor (InsP3R)"
B1,Calcium signaling,[8],protected calcium signaling
